In ChEMBL document CHEMBL5154706, “Synthesis of lathyrane diterpenoid nitrogen-containing heterocyclic derivatives and evaluation of their anti-inflammatory activities” (Bioorg Med Chem, 2022):
pIC50: −log10 of the molar value. Calls of active or inactive are those of the source. The rule behind the calls is not given here.

How the values were obtained:
RAW264.7 [1] = test: Antiinflammatory activity against LPS-induced mouse RAW264.7 cells assessed as increase in HO-1 expression preincubated for 3 hrs followed by LPS stimulation and measured after 24 hrs by Western blot analysis; assay type: functional, cell-based; conditions: dose 0.25-2 µM, time 27.0 hrs, DDE = dose-dependent effect
RAW264.7 [2] = test: Antiinflammatory activity against mouse RAW264.7 cells assessed as inhibition of LPS-induced NO production preincubated for 3 hrs followed by LPS stimulation and measured after 24 hrs by Griess reagent based assay; assay type: functional, cell-based
RAW264.7 [3] = test: Antiinflammatory activity against LPS-induced mouse RAW264.7 cells assessed as decrease in Keap1 expression preincubated for 3 hrs followed by LPS stimulation and measured after 24 hrs by Western blot analysis; assay type: functional, cell-based; conditions: dose 0.25-2 µM, time 27.0 hrs, DDE = dose-dependent effect
RAW264.7 [4] = test: Antiinflammatory activity against LPS-induced mouse RAW264.7 cells assessed as increase in intrinsic nitric oxide level at 0.5 ug/ml measured after 3 hrs by Griess reagent based assay; assay type: functional, cell-based; conditions: dose 0.5 µg/ml
RAW264.7 [5] = test: Antiinflammatory activity against LPS-induced mouse RAW264.7 cells assessed as increase in Nrf2 expression preincubated for 3 hrs followed by LPS stimulation and measured after 24 hrs by Western blot analysis; assay type: functional, cell-based; conditions: dose 0.25-2 µM, time 27.0 hrs, DDE = dose-dependent effect
RAW264.7 [6] = test: Antiinflammatory activity against mouse RAW264.7 cells assessed as inhibition of LPS-induced ROS generation at 0.25 to 2 uM preincubated for 3 hrs followed by LPS stimulation and measured after 12 hrs by DCFH-DA probe based flow cytometry; assay type: functional, cell-based; conditions: dose 0.25-2 µM, time 15.0 hrs
[7] = biological target: T1, Nuclear factor erythroid 2-related factor 2 (Mus musculus) (UniProt Q60795); test: Induction of LPS-induced Nrf2 nuclear translocation in mouse RAW264.7 cells at 2 uM preincubated for 3 hrs followed by LPS stimulation and measured after 12 hrs by immunofluorescence staining based confocal laser scanning microscopy; assay type: cell-based; conditions: time 15.0 hrs
T1 sequence (whole entry): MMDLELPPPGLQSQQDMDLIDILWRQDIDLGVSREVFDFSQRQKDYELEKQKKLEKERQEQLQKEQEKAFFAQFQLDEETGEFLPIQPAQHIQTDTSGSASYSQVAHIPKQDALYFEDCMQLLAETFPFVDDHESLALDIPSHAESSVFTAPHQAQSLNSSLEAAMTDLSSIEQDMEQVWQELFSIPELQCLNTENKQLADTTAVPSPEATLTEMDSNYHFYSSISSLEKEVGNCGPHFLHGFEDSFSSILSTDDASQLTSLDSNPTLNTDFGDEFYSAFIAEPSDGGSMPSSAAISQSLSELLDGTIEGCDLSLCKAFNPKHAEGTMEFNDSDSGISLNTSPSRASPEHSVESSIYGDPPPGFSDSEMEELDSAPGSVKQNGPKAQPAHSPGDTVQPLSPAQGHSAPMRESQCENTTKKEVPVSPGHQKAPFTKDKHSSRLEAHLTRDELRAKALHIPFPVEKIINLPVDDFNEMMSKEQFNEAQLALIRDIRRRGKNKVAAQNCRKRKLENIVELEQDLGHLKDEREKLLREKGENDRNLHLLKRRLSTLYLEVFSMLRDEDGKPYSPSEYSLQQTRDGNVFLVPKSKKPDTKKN

- pIC50 (RAW264.7 [2]): 6.42
- Activity [7]: Active
Compound: C=C1CC[C@H]2[C@@H](/C=C(\C)C(=O)[C@@]3(O)C[C@H](C)[C@H](O)[C@@H]3[C@H]1OC(=O)CCC(=O)OCCOCCOc1no[n+]([O-])c1S(=O)(=O)c1ccccc1)C2(C)C
- Activity (RAW264.7 [1]): Dde
- Activity (RAW264.7 [3]): Dde
- Activity (RAW264.7 [4]): Active
- Activity (RAW264.7 [5]): Dde
- inhibition (RAW264.7 [6]): Active
